tested on: Athelia rolfsii; assay: Fungicidal activity against Athelia rolfsii assessed as fungal growth inhibition at 10 ppm by agar dilution method; assay type: functional; details: Agroathelia rolfsii; read-out: GI

Compound	inhibition of growth at 10 ppm [%]
CCOP1(=S)OCc2cc(CC)ccc2O1 (stereo unspecified)	66
CC(C)OP(=O)(OC(C)C)SCc1ccccc1 [IPROBENFOS]	69
CCCc1ccc2c(c1)COP(=S)(OCC)O2 (stereo unspecified)	63
CCOP1(=S)OCc2cc(C(C)C)ccc2O1 (stereo unspecified)	45

tested on: Pythium; assay: Fungicidal activity against Pythium sp. assessed as fungal growth inhibition at 100 ppm by agar dilution method; assay type: functional; details: read-out: GI

Compound	inhibition of growth at 100 ppm [%]
COP1(=S)OCc2ccccc2O1 (stereo unspecified) [SALITHION]	75
CCCc1ccc2c(c1)COP(=S)(Oc1ccc(C)cc1C(C)C)O2 (stereo unspecified)	3
CCOP1(=S)OCc2cc(CC)ccc2O1 (stereo unspecified)	82
CCCCc1ccc2c(c1)COP(=S)(Oc1ccc(C)cc1C(C)C)O2 (stereo unspecified)	39
CC(C)OP(=O)(OC(C)C)SCc1ccccc1 [IPROBENFOS]	89
CCCc1ccc2c(c1)COP(=S)(Oc1cc(C)ccc1C(C)C)O2 (stereo unspecified)	53
CCOP1(=S)OCc2cc(C(C)CC)ccc2O1 (stereo unspecified)	56
CCCCc1ccc2c(c1)COP(=S)(Oc1cc(C)ccc1C(C)C)O2 (stereo unspecified)	83
CCCc1ccc2c(c1)COP(=S)(OCC)O2 (stereo unspecified)	56
CCCCc1ccc2c(c1)COP(=S)(OCC)O2 (stereo unspecified)	61
CCCc1ccc2c(c1)COP(=S)(OCCc1ccccc1)O2 (stereo unspecified)	48
CCOP1(=S)OCc2cc(C(C)C)ccc2O1 (stereo unspecified)	66

tested on: Pythium; assay: Fungicidal activity against Pythium sp. assessed as fungal growth inhibition at 10 ppm by agar dilution method; assay type: functional; details: read-out: GI

Compound	inhibition of growth at 10 ppm [%]
CCOP1(=S)OCc2cc(CC)ccc2O1 (stereo unspecified)	42
CC(C)OP(=O)(OC(C)C)SCc1ccccc1 [IPROBENFOS]	42
CCCCc1ccc2c(c1)COP(=S)(Oc1cc(C)ccc1C(C)C)O2 (stereo unspecified)	23

tested on: Athelia rolfsii; assay: Fungicidal activity against Athelia rolfsii assessed as fungal growth inhibition at 100 ppm by agar dilution method; assay type: functional; details: Agroathelia rolfsii; read-out: GI

Compound	inhibition of growth at 100 ppm [%]
COP1(=S)OCc2ccccc2O1 (stereo unspecified) [SALITHION]	61
CCCc1ccc2c(c1)COP(=S)(Oc1ccc(C)cc1C(C)C)O2 (stereo unspecified)	27
CCOP1(=S)OCc2cc(CC)ccc2O1 (stereo unspecified)	91
CCCCc1ccc2c(c1)COP(=S)(Oc1ccc(C)cc1C(C)C)O2 (stereo unspecified)	41
CC(C)OP(=O)(OC(C)C)SCc1ccccc1 [IPROBENFOS]	100
CCCc1ccc2c(c1)COP(=S)(Oc1cc(C)ccc1C(C)C)O2 (stereo unspecified)	37
CCOP1(=S)OCc2cc(C(C)CC)ccc2O1 (stereo unspecified)	67
CCCCc1ccc2c(c1)COP(=S)(Oc1cc(C)ccc1C(C)C)O2 (stereo unspecified)	58
CCCc1ccc2c(c1)COP(=S)(OCC)O2 (stereo unspecified)	84
CCCCc1ccc2c(c1)COP(=S)(OCC)O2 (stereo unspecified)	76
CCCc1ccc2c(c1)COP(=S)(OCCc1ccccc1)O2 (stereo unspecified)	48
CCOP1(=S)OCc2cc(C(C)C)ccc2O1 (stereo unspecified)	83

From ChEMBL document CHEMBL3045739, “Synthesis and Fungicidal Activity of 6-Alkyl Six-membered Cyclic Thiophosphates” (1997)
